# Laboratory results as given in patent publication US7745646B2, “Bicyclic heteroaryl inhibitors of PDE4” (Kalypsys, Inc., priority 2006, dated 2010).
# Target: T1, PDE4B (Homo sapiens, UniProt Q07343)
# T1 construct: hex-histidine (His6) (N); made in house
# Assay: Novel coupled PDE/AK bioluminescent assay, PDE4B inhibition
# Type: biochemical
# Settings: PDE4B catalytic domain
# Text: We developed a novel coupled PDE/AK bioluminescent high-throughput assay to measure the activity of phosphodiesterases. In the PDE/AK assay, the AMP produced from the hydrolysis of cAMP by phosphodiesterase is converted to adenosine diphosphate (ADP) by the phosphotransferase activity of adenylate kinase (also known as ADK or myokinase). Adenylate kinase will catalyze the conversion of 1 mole of AMP and 1 mole of ATP into 2 moles of ADP. Thus the conversion of AMP to ADP will result in the subsequent loss of ATP. The decrease in ATP concentration can be monitored as light output using luciferase in a reaction that requires ATP to produce light. The PDE/AK assay uses luciferase, which catalyzes the production of light from ATP present in the reaction mix. The amount of emitted light is inversely proportional to the level of AMP present in the reaction. Test compounds are incubated with the phosphodiesterases and phosphodiesterase inhibitors will decrease the rate of cAMP hydrolysis and decrease the subsequent production of AMP.
# A novel coupled PDE/AK assay was utilized to measure the inhibitory activity of compounds on PDE isoforms. The catalytic domain of PDE4B was fused to an amino-terminus hex-histidine affinity tag and purified. PDE4B enzyme was incubated with compounds for 10 minutes. Cyclic AMP substrate, ATP and adenylate kinase were then added to the PDE enzyme mix and incubated for 45 minutes at room temperature. A commercial ATP detection assay, Perkin Elmer's easyLite ATP detection reagent, was then added to measure the relative amount of ATP present in the reaction. After 10 minute incubation, the luminescent signal was quantitated with either the Perkin Elmer Viewlux or Molecular Devices Acquest or Analyst.
# T1 sequence (Q07343 330-659 limits assumed, species assumed): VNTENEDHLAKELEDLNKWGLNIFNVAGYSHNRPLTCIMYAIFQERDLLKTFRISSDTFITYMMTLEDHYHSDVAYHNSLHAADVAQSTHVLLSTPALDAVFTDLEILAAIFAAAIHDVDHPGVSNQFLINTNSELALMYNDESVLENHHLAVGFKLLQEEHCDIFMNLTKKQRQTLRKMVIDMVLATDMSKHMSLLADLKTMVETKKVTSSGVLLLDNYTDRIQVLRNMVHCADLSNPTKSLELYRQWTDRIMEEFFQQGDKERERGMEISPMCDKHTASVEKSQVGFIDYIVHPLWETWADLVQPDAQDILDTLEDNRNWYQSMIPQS
row,Structure (SMILES),IC50
1,"COC(=O)COc1c(OC)ccc2c(Nc3c(Cl)cncc3Cl)cc(=O)oc12 [Example 45, Methyl 2-(4-(3,5-dichloropyridin-4-ylamino)-7-methoxy-2-oxo-2H-chromen-8-yloxy)acetate]",< 1000 nM
2,"CCOC(=O)COc1c(OC)ccc2c(Nc3c(Cl)cncc3Cl)cc(=O)oc12 [Example 46, Ethyl 2-(4-(3,5-dichloropyridin-4-ylamino)-7-methoxy-2-oxo-2H-chromen-8-yloxy)acetate]",< 1000 nM
3,"COc1ccc2c(Nc3c(Cl)cncc3Cl)cc(=O)oc2c1OCCC1CCCCC1 [Example 47, 8-(2-Cyclohexylethoxy)-4-(3,5-dichloropyridin-4-ylamino)-7-methoxy-2H-chromen-2-one]",< 1000 nM
4,"COc1ccc2c(Nc3c(Cl)cncc3Cl)cc(=O)oc2c1OCCCc1ccccc1 [Example 48, 4-(3,5-Dichloropyridin-4-ylamino)-7-methoxy-8-(3-phenylpropoxy)-2H-chromen-2-one]",< 1000 nM
5,"COc1ccc2c(Nc3c(Cl)cncc3Cl)cc(=O)oc2c1OCC(=O)O [Example 49, 2-(4-(3,5-Dichloropyridin-4-ylamino)-7-methoxy-2-oxo-2H-chromen-8-yloxy)acetic acid]",> 1000 nM
6,"COc1ccc2c(Nc3c(Cl)cncc3Cl)cc(=O)oc2c1OC[C@@H]1OC(=O)[C@H]2OC(C)(C)O[C@@H]12 [Example 50, 4-(3,5-Dichloropyridin-4-ylamino)-8-(((3aS,4S,6aS)-2,2-dimethyl-6-oxotetrahydrofuro[3,4-d][1,3]dioxol-4-yl)methoxy)-7-methoxy-2H-chromen-2-one]",< 1000 nM
7,"COc1ccc2c(Nc3c(Cl)cncc3Cl)cc(=O)oc2c1OC[C@@H]1OC(=O)[C@@H](O)[C@H]1O [Example 51, 4-(3,5-Dichloropyridin-4-ylamino)-8-(((2S,3R,4S)-3,4-dihydroxy-5-oxotetrahydrofuran-2-yl)methoxy)-7-methoxy-2H-chromen-2-one]",< 1000 nM
8,"COc1ccc2c(Nc3c(Cl)cncc3Cl)cc(=O)oc2c1OCCCCCN1CCN(C)CC1 [Example 52, 4-(3,5-Dichloropyridin-4-ylamino)-7-methoxy-8-(5-(4-methylpiperazin-1-yl)pentyloxy)-2H-chromen-2-one]",< 1000 nM
9,"COc1ccc2c(Nc3c(Cl)cncc3Cl)cc(=O)oc2c1OCCCCCN1CCOCC1 [Example 53, 4-(3,5-Dichloropyridin-4-ylamino)-7-methoxy-8-(5-morpholinopentyloxy)-2H-chromen-2-one]",< 1000 nM
10,"COc1ccc2c(Nc3c(Cl)cncc3Cl)cc(=O)oc2c1OCCCCCN1CCCCC1 [Example 54, 4-(3,5-Dichloropyridin-4-ylamino)-7-methoxy-8-(5-(piperidin-1-yl)pentyloxy)-2H-chromen-2-one]",< 1000 nM
11,"COc1ccc2c(Nc3c(Cl)cncc3Cl)cc(=O)oc2c1OCCCCCN1CCCC1 [Example 55, 4-(3,5-Dichloropyridin-4-ylamino)-7-methoxy-8-(5-(pyrrolidin-1-yl)pentyloxy)-2H-chromen-2-one]",< 1000 nM
12,"COc1ccc2c(Nc3c(Cl)cncc3Cl)cc(=O)oc2c1OCC(N)=O [Example 56, 2-(4-(3,5-Dichloropyridin-4-ylamino)-7-methoxy-2-oxo-2H-chromen-8-yloxy)acetamide]",< 1000 nM
13,"COc1ccc2c(Nc3c(Cl)cncc3Cl)cc(=O)oc2c1OCCCCCC#N [Example 57, 6-(4-(3,5-Dichloropyridin-4-ylamino)-7-methoxy-2-oxo-2H-chromen-8-yloxy)hexanenitrile]",< 1000 nM
14,"COC(=O)CCCCCOc1c(OC)ccc2c(Nc3c(Cl)cncc3Cl)cc(=O)oc12 [Example 58, Methyl 6-(4-(3,5-dichloropyridin-4-ylamino)-7-methoxy-2-oxo-2H-chromen-8-yloxy)hexanoate]",< 1000 nM
15,"COC(=O)CCCCCOc1c(OC)ccc2c(N(C)c3c(Cl)cncc3Cl)cc(=O)oc12 [Example 59, Methyl 6-(4-((3,5-dichloropyridin-4-yl)(methyl)amino)-7-methoxy-2-oxo-2H-chromen-8-yloxy)hexanoate]",> 1000 nM
16,"COc1ccc2c(Nc3c(Cl)cncc3Cl)cc(=O)oc2c1O[C@@H]1O[C@H](COC(C)=O)[C@@H](OC(C)=O)[C@H](OC(C)=O)[C@H]1OC(C)=O [Example 60, (2R,3R,4S,5R,6S)-2-(Acetoxymethyl)-6-(4-(3,5-dichloropyridin-4-ylamino)-7-methoxy-2-oxo-2H-chromen-8-yloxy)tetrahydro-2H-pyran-3,4,5-triyl triacetate]",< 1000 nM
17,"COc1ccc2c(Nc3c(Cl)cncc3Cl)cc(=O)oc2c1OCCCCCOC(C)=O [Example 61, 5-(4-(3,5-Dichloropyridin-4-ylamino)-7-methoxy-2-oxo-2H-chromen-8-yloxy)pentyl acetate]",< 1000 nM
18,"COc1ccc2c(Nc3c(Cl)cncc3Cl)cc(=O)oc2c1OCCCCN1CCN(C)CC1 [Example 70, 4-(3,5-Dichloropyridin-4-ylamino)-7-methoxy-8-(4-(4-methylpiperazin-1-yl)butoxy)-2H-chromen-2-one]",< 1000 nM
19,"COc1ccc2c(Nc3c(Cl)cncc3Cl)cc(=O)oc2c1OCCCCN1CCOCC1 [Example 71, 4-(3,5-Dichloropyridin-4-ylamino)-7-methoxy-8-(4-morpholinobutoxy)-2H-chromen-2-one]",< 1000 nM

# The next lines start with the values.
row,IC50,Structure (SMILES)
1,< 1000 nM,"COc1ccc2c(Nc3c(Cl)cncc3Cl)cc(=O)oc2c1OCCOCCBr [Example 62, 8-(2-(2-Bromoethoxy)ethoxy)-4-(3,5-dichloropyridin-4-ylamino)-7-methoxy-2H-chromen-2-one]"
2,< 1000 nM,"COc1ccc2c(Nc3c(Cl)cncc3Cl)cc(=O)oc2c1OCCCCCc1nn[nH]n1 [Example 63, 8-(5-(2H-Tetrazol-5-yl)pentyloxy)-4-(3,5-dichloropyridin-4-ylamino)-7-methoxy-2H-chromen-2-one]"
3,< 1000 nM,"COc1ccc2c(Nc3c(Cl)cncc3Cl)cc(=O)oc2c1OC [Example 64, 4-(3,5-Dichloropyridin-4-ylamino)-7,8-dimethoxy-2H-chromen-2-one]"
4,< 1000 nM,"COc1ccc2c(Nc3c(Cl)cncc3Cl)cc(=O)oc2c1OCCCCCCC(=O)O [Example 65, 7-(4-(3,5-Dichloropyridin-4-ylamino)-7-methoxy-2-oxo-2H-chromen-8-yloxy)heptanoic acid]"
5,< 1000 nM,"COc1ccc2c(Nc3c(Cl)cncc3Cl)cc(=O)oc2c1OCCCCCCCC(=O)O [Example 66, 8-(4-(3,5-Dichloropyridin-4-ylamino)-7-methoxy-2-oxo-2H-chromen-8-yloxy)octanoic acid]"
6,< 1000 nM,"COc1ccc2c(Nc3c(Cl)cncc3Cl)cc(=O)oc2c1OCCCCCCCCC(=O)O [Example 67, 9-(4-(3,5-Dichloropyridin-4-ylamino)-7-methoxy-2-oxo-2H-chromen-8-yloxy)nonanoic acid]"
7,< 1000 nM,"COc1ccc2c(Nc3c(Cl)cncc3Cl)cc(=O)oc2c1OCCCCCN [Example 68, 8-(5-Aminopentyloxy)-4-(3,5-dichloropyridin-4-ylamino)-7-methoxy-2H-chromen-2-one]"
8,< 1000 nM,"COc1ccc2c(Nc3c(Cl)cncc3Cl)cc(=O)oc2c1OCCOCCN(C)C [Example 69, 4-(3,5-Dichloropyridin-4-ylamino)-8-(2-(2-(dimethylamino)ethoxy)ethoxy)-7-methoxy-2H-chromen-2-one]"
9,< 1000 nM,"COc1ccc2c(Nc3c(Cl)cncc3Cl)cc(=O)oc2c1OCCCCCO [Example 72, 4-(3,5-Dichloropyridin-4-ylamino)-8-(5-hydroxypentyloxy)-7-methoxy-2H-chromen-2-one]"
